# Data: EP4707280A1, “1,4-CINEOLE DERIVATIVE AND INTERMEDIATE THEREOF, HERBICIDE CONTAINING SAID DERIVATIVE AS ACTIVE INGREDIENT, METHOD FOR USING HERBICIDE, AND METHOD FOR PREPARING AGROCHEMICAL COMPOSITION” (HOKKO CHEMICAL INDUSTRY CO., LTD., priority 2023, dated 2024)
# Where two headings read alike, the source gives them in different places.
# Legend:
# Type in all cases: in vivo
# Amaranthus viridis [1] = test: Test Example 4: herbicidal effect test by stem and leaf treatment in upland field; conditions: 120 g per 10 ares, sprayed seven days after sowing, upland soil, 14 days after application, read-out: weed inhibition rate
# Summary of the method: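 Upland alluvial loam soil in pots, twenty seeds per weed species mixed into top 1 cm; seven days after sowing, emulsifiable concentrate diluted in water sprayed at 100 liters per 10 ares, active ingredient 120 g per 10 ares. Weed inhibition rate (%) scored 14 days after application, duplicate per concentration.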
# Chenopodium album [2] = test: as above; conditions: 120 g per 10 ares, sprayed seven days after sowing, upland soil, 14 days after application, read-out: weed inhibition rate
# [3] = system: Echinochloa crus-galli var. formosensis at the three-leaf stage; test: Comparative Example: herbicidal effect test by application during growth period of paddy rice (three-leaf stage, Table 7); conditions: 504 h, active ingredient 7.5 g per 10 ares, emulsifiable concentrate applied by dropper to flooded pots, 21 days after chemical application, triplicate, read-out: Weed inhibition rate (%)
# Protocol: As an example, the herbicidal effect on Echinochloa crus-galli var. formosensis at the three-leaf stage was confirmed by the following method, and the results are specifically shown in Table 7 as a comparative example.
# Wagner pots with an area of […] were filled with paddy soil, followed by addition of water and incorporation of chemical fertilizer (N:P:K = 16:16:16), after which puddling was performed. After that, 30 seeds of Echinochloa crus-galli var. formosensis were sown at a depth of 0 cm to 1 cm. Immediately after sowing, the pots were flooded and a water depth of approximately 3 cm was maintained. Subsequent management was conducted in a glass greenhouse. When Echinochloa crus-galli var. formosensis reached the three-leaf stage, an emulsifiable concentrate prepared according to Formulation Example 5 using the compound shown below was diluted with water, and a specified amount of the diluted solution was applied by dropper. The amount of the active ingredient to be applied was equivalent to 7.5 g per 10 ares. The test was conducted in triplicate for each chemical concentration group, and the weed inhibition rate (%) was determined 21 days after chemical application using the following formula (Math. 1).
# Lindernia pyxidaria [4] = test: Test Example 1: herbicidal effect test by soil application in paddy rice; conditions: 336 h, 120 g active ingredient per 10 ares, applied immediately after sowing, flooded pots, 14 days after application, read-out: weed inhibition rate
# Summary of the method: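 Inhibition rate (%) read 14 days after treatment, duplicate pots. Water-diluted emulsifiable concentrate was applied by dropper at 120 g active ingredient/10 ares right after sowing. Seeds (30 per species, 0–1 cm deep) went into puddled paddy soil kept flooded at about 3 cm in a greenhouse.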
# Chenopodium album [5] = test: Test Example 8: herbicidal effect test by stem and leaf treatment in upland field (low dose); conditions: 7.5 g per 10 ares, sprayed seven days after sowing, upland soil, 14 days after application, read-out: weed inhibition rate
# Summary of the method: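 Sow twenty seeds per weed in the top 1 cm of alluvial loam soil in 36 cm^2 pots and press lightly; after 7 days, spray the diluted emulsifiable concentrate at 100 liters per 10 ares (7.5 g a.i. per 10 ares); assess percent inhibition 14 days later.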
# Lindernia pyxidaria [6] = test: Test Example 5: herbicidal effect test by soil application in paddy rice (low dose); conditions: 336 h, 7.5 g per 10 ares, applied immediately after sowing, flooded pots, 14 days after application, read-out: weed inhibition rate
# Summary of the method: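 Paddy-soil pots, weeds sown 0–1 cm deep and flooded to about 3 cm in a greenhouse. Emulsifiable concentrate diluted in water and dropped in right after sowing at 7.5 g active ingredient per 10 ares. Duplicates; effect scored 14 days after application.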
# Amaranthus viridis [7] = test: Test Example 7: herbicidal effect test by soil application in upland field (low dose); conditions: read-out: weed inhibition rate
# [8] = 7.5 g per 10 ares, sprayed one day after sowing, upland soil, 14 days after application
Compound,inhibition at 1200 g/ha (Chenopodium album [2]),inhibition at 75 g/ha [3],pest or weed control at 1200 g/ha (Lindernia pyxidaria [4]),further results
"CC(C)[C@]12C=C[C@](C)(O1)C(OCc1ccccc1F)C2 (mixture of isomers) [3-5, (1R,4S,SR)-5-[(2-fluorophenyl)methoxy]-4-methyl-1-isopropyl-7-oxabicyclo[2.2.1]hept-2-ene]",≥ 80%,82%,≥ 80%,inhibition at 1200 g/ha (Amaranthus viridis [1]): ≥ 80%; inhibition at 75 g/ha (Chenopodium album [5]): ≥ 80%
"Cc1ccccc1CO[C@@H]1C[C@]2(C(C)C)O[C@@]1(C)C[C@@H]2F [1-2, (1R,2S,4S,5R)-2-fluoro-1-isopropyl-4-methyl-5-((2-methylbenzyl)oxy)-7-oxabicyclo[2.2.1]heptane]",≥ 80%,94%,,inhibition at 1200 g/ha (Amaranthus viridis [1]): ≥ 80%; inhibition at 75 g/ha (Chenopodium album [5]): ≥ 80%
"CC(C)[C@]12C[C@@H](OCc3ccccc3F)[C@](C)(C[C@@H]1F)O2 [1-5, (1R,2S,4S,5R)-2-fluoro-5-((2-fluorobenzyl)oxy)-1-isopropyl-4-methyl-7-oxabicyclo[2.2.1]heptane]",≥ 80%,100%,,
"CC(C)[C@]12C[C@@H](OCc3ccccc3)[C@](C)(C[C@@H]1Br)O2 [1-15, (1S,2R,4R,5S)-5-bromo-1-methyl-2-phenylmethoxy-4-isopropyl-7-oxabicyclo[2.2.1]heptane]",,80%,,
"Cc1ccccc1CO[C@@H]1C[C@]2(C(C)C)O[C@@]1(C)C[C@@H]2Br [1-16, (1S,2R,4R,5S)-5-bromo-1-methyl-2-[(2-methylphenyl)methoxy]-4-isopropyl-7-oxabicyclo[2.2.1]heptane]",,,≥ 80%,
"CC(C)[C@]12C[C@@H](OCc3ccccc3F)[C@](C)(C[C@@H]1Br)O2 [1-19, (1S,2R,4R,5S)-5-bromo-2-[(2-fluorophenyl)methoxy]-1-methyl-4-isopropyl-7-oxabicyclo[2.2.1]heptane]",≥ 80%,88%,≥ 80%,
"CC(C)[C@]12C[C@@H](OCc3c(F)cccc3F)[C@](C)(C[C@@H]1Br)O2 [1-21, (1S,2R,4R,5S)-5-bromo-2-[(2,6-difluorophenyl)methoxy]-1-methyl-4-isopropyl-7-oxabicyclo[2.2.1]heptane]",,93%,,
"Cc1ccccc1CO[C@@H]1C[C@]2(C(C)C)O[C@@]1(C)CC2C (stereo partly drawn) [1-83, (1S,2R,4R)-4-isopropyl-1,5-dimethyl-2-((2-methylbenzyl)oxy)-7-oxabicyclo[2.2.1]heptane]",≥ 80%,99%,,
"CC(C)[C@]12C[C@@H](OCc3ccccc3F)[C@](C)(CC1C)O2 (stereo partly drawn) [1-92, (1S,2R,4R)-2-((2-fluorobenzyl)oxy)-4-isopropyl-1,5-dimethyl-7-oxabicyclo[2.2.1]heptane]",≥ 80%,100%,,inhibition at 1200 g/ha (Amaranthus viridis [1]): ≥ 80%; inhibition at 75 g/ha (Chenopodium album [5]): ≥ 80%
"CC(C)[C@]12C[C@@H](OCc3c(F)cccc3F)[C@](C)(CC1C)O2 (stereo partly drawn) [1-111, (1S,2R,4R)-2-((2,6-difluorobenzyl)oxy)-4-isopropyl-1,5-dimethyl-7-oxabicyclo[2.2.1]heptane]",,100%,,
"CCC1C[C@]2(C)O[C@@]1(C(C)C)C[C@H]2OCc1ccccc1F (stereo partly drawn) [1-126, (1R,4S,5R)-2-ethyl-5-[(2-fluorobenzyl)oxy]-1-isopropyl-4-methyl-7-oxabicyclo[2.2.1]heptane]",,100%,,
"CCO[C@H]1C[C@]2(C)O[C@@]1(C(C)C)C[C@H]2OCc1ccccc1F [1-183, (1S,2R,4R,5S)-5-ethoxy-2-[(2-fluorophenyl)methoxy]-1-methyl-4-isopropyl-7-oxabicyclo[2.2.1]heptane]",,93%,,
"CC(C)[C@]12C[C@@H](OCc3ccccc3F)[C@](C)(C[C@@H]1OCc1ccccc1F)O2 [1-603, (1S,2R,4R,5S)-2,5-bis[(2-fluorophenyl)methoxy]-1-methyl-4-isopropyl-7-oxabicyclo[2.2.1]heptane]",≥ 80%,,≥ 80%,inhibition at 75 g/ha (Lindernia pyxidaria [6]): ≥ 80%
"CC(C)[C@]12C[C@@H](OCc3ccccc3Br)[C@](C)(C[C@@H]1Br)O2 [1-694, (1S,2R,4R,5S)-5-bromo-2-[(2-bromophenyl)methoxy]-1-methyl-4-isopropyl-7-oxabicyclo[2.2.1]heptane]",,,,inhibition at 75 g/ha (Amaranthus viridis [7]; [8]): ≥ 80%
"CC(C)[C@]12C[C@@H](OCc3ccccc3C#N)[C@](C)(C[C@@H]1Br)O2 [1-703, 2-[[(1S,2R,4R,5S)-5-bromo-1-methyl-4-isopropyl-7-oxabicyclo[2.2.1]heptan-2-yl]oxymethyl]benzonitrile]",,,≥ 80%,
"Cc1ccccc1CO[C@@H]1C[C@]2(C(C)C)O[C@@]1(C)C[C@@H]2I [1-741, (1S,2R,4R,5S)-5-iodo-1-methyl-2-[(2-methylphenyl)methoxy]-4-isopropyl-7-oxabicyclo[2.2.1]heptane]",,,≥ 80%,inhibition at 75 g/ha (Lindernia pyxidaria [6]): ≥ 80%
"CC(C)[C@]12C[C@@H](OCc3ccccc3F)[C@](C)(C[C@@H]1I)O2 [1-753, (1S,2R,4R,SS)-2-[(2-fluorophenyl)methoxy]-5-iodo-1-methyl-4-isopropyl-7-oxabicyclo[2.2.1]heptane]",,93%,,inhibition at 75 g/ha (Amaranthus viridis [7]; soil): ≥ 80%
"COC1(OC)C[C@]2(C)O[C@@]1(C(C)C)C[C@H]2OCc1ccccc1F [1-935, (1R,4S,5R)-5-((2-fluorobenzyl)oxy)-1-isopropyl-2,2-dimethoxy-4-methyl-7-oxabicyclo[2.2.1]heptane]",,,≥ 80%,
"C=CCO[C@H]1C[C@]2(C)O[C@@]1(C(C)C)C[C@H]2OCc1ccccc1F [1-1602, (1S,2R,4R,5S)-2-[(2-fluorophenyl)methoxy]-1-methyl-4-isopropyl-5-prop-2-enoxy-7-oxabicyclo[2.2.1]heptane]",,82%,,
"Cc1ccccc1CO[C@@H]1C[C@]2(C(C)C)O[C@@]1(C)CC2=O [2-3, (1R,4S,5R)-1-isopropyl-4-methyl-5-((2-methylbenzyl)oxy)-7-oxabicyclo[2.2.1]heptan-2-one]",≥ 80%,,≥ 80%,
"Cc1cccc(C)c1CO[C@@H]1C[C@]2(C(C)C)O[C@@]1(C)CC2=O [2-5, (1R,4S,5R)-5-((2,6-dimethylbenzyl)oxy)-1-isopropyl-4-methyl-7-oxabicyclo[2.2.1]heptan-2-one]",,,≥ 80%,inhibition at 75 g/ha (Lindernia pyxidaria [6]): ≥ 80%
"Cc1ccccc1CO[C@@H]1C[C@]2(C(C)C)O[C@@]1(C)C/C2=N\O [2-191, (1R,4S,5R,E)-1-isopropyl-4-methyl-5-((2-methylbenzyl)oxy)-7-oxabicyclo[2.2.1]heptan-2-one oxime]",,,,inhibition at 1200 g/ha (Amaranthus viridis [1]): ≥ 80%
"CC(C)[C@]12C[C@@H](OCc3ccccc3F)[C@](C)(C/C1=N\O)O2 [2-197, (1R,4S,5R,E)-5-((2-fluorobenzyl)oxy)-1-isopropyl-4-methyl-7-oxabicyclo[2.2.1]heptan-2-one oxime]",,,≥ 80%,inhibition at 1200 g/ha (Amaranthus viridis [1]): ≥ 80%
"CC(C)[C@]12C[C@@H](OCc3ccc(F)cc3)[C@](C)(CC1=O)O2 [2-349, (1R,4S,5R)-5-((4-fluorobenzyl)oxy)-1-isopropyl-4-methyl-7-oxabicyclo[2.2.1]heptan-2-one]",,,≥ 80%,inhibition at 1200 g/ha (Amaranthus viridis [1]): ≥ 80%
"CC(C)[C@]12C[C@@H](OCc3cccc(F)c3)[C@](C)(CC1=O)O2 [2-351, (1R,4S,5R)-5-((3-fluorobenzyl)oxy)-1-isopropyl-4-methyl-7-oxabicyclo[2.2.1]heptan-2-one]",≥ 80%,,≥ 80%,
"Cc1ccccc1CO[C@@H]1C[C@@]2(C(C)C)C=C[C@]1(C)O2 [3-2, (1R,4S,5R)-4-methyl-5-[(2-methylphenyl)methoxy]-1-isopropyl-7-oxabicyclo[2.2.1]hept-2-ene]",,,,inhibition at 75 g/ha (Amaranthus viridis [7]; [8]): ≥ 80%
